Experimental data from article PMC7525093, “Bis-Quinolinium Cyclophane Blockers of SK Potassium Channels Are Antagonists of M3 Muscarinic Acetylcholine Receptors” (Frontiers in Pharmacology, 2020).
Where “and” joins values, the source holds several entries; their conditions need not be identical. Equal values may be shown once. Read-outs that look alike come from different tables or passages of the source.

Experiments:
[1] = target: T1, human P2Y1 purinergic receptor (Homo sapiens, UniProt P47900); experiment: R-CEPIAer ER calcium assay, CHO cells co-transfected with P2Y1 receptor; format: cell-based; settings: 5 μM UCL 1684, 1 μM ATP, read-out: Fractional inhibition of second ATP response
T1 construct: expressed in transfected cells; host or cells: CHO cells, transiently co-transfected with pCMV R-CEPIAer
Method: [Worded in the source for another target; used here, by the source, with some conditions changed.] The binding of antagonists to Gq-coupled receptors was determined by measuring IP3-mediated calcium depletion from the endoplasmic reticulum (ER). This was accomplished using CHO-K1 cells stably transfected with human M3 muscarinic acetylcholine receptor (CEM3000000, cDNA Resource Center, Bloomsburg University) and R-CEPIAer, a low affinity ER-targeted calcium indicator fluorescent protein ([Suzuki et al., 2014]). R-CEPIAer reporting of ER calcium concentration was assessed using 564 nm excitation light (>590 long-pass emission) at 20 second intervals on a Nikon swept-field confocal microscope using slit-scan mode, 2x2 Binning, and 100 millisecond frames. F/Fmax was fluorescence intensity normalized to maximal fluorescence intensity during the experiment. The response of cells to Gq-coupled receptor agonist were measured as the change in F/Fmax (ΔF/Fmax) from preagonist value to fluorescence minimum during agonist application (that occurs by IP3-mediated ER calcium depletion). […] Perfusion of each agonist application was for 2 min, while the antagonist overlapped and preceded the second agonist application by 3 min. […] IC50 was calculated by assaying fractional inhibition using a dose-response of antagonist concentrations (i.e. Figure 1D ). […]

mouse lung lower airways = experiment: Bronchial diameter changes in mouse lung slices; settings: 3.5 μM UCL 1684; 0.5 μM carbachol
Method: Experiments using mouse lung slices were conducted as described ([Sanderson, 2011]). Eight-week-old Balb/C mice were sacrificed by deep isoflurane anesthesia followed by cervical dislocation. Trachea were isolated, cannulated with a blunt needle and the lungs filled with 3 ml of Hanks balanced salt solution (HBSS) with 2% low-temperature melt agarose at 37°C followed by 0.5 ml of air to clear the airways of agarose. The mouse thoracic cavity was exposed and the lungs chilled with an ice bath. After gelling of the agarose, the lungs were removed and 200 μm sections made with a Leica Vibratome VT1200. The sections were placed in DMEM in a tissue-culture incubator at 37°C for up to 8 h. Experiments measuring diameter changes were conducted using an inverted 10X phase contrast objective and oblique lighting in a constant perfusion (0.5 ml/min) bath of HBSS at 22°C solution.

M3 mACHR = target: T2, M3 mACHR (Homo sapiens, UniProt P20309); experiment: [3H]-NMS competition binding, M3 mACHR-expressing CHO cell membranes; settings: 0.9 nM [3H]-NMS
T2 construct: expressed in transfected cells; host or cells: membranes of M3 mACHR-expressing CHO cells
Method: Competition binding assays were done with [^3H]-N-methyl-scopolamine ([3H]-NMS, PerkinElmer) essentially as described ([Steinfeld et al., 2010]) with minor modifications. Membrane homogenates were prepared in HEPES assay buffer (20 mM HEPES, 100 mM NaCl, and 10 mM MgCl, pH 7.4) by trituration on ice through a 26-gauge needle followed by centrifugation at 39,000g in Sorval RC-6+ centrifuge. Membranes were resuspended in assay buffer and protein concentration determined by the method of Bradford using bovine serum albumin as a standard ([Bradford, 1976]). Membranes (25 µg) were incubated along with 0.9 nM ^3H- NMS without or with UCL1684 concentrations (10^-11M to 10^-4M in triplicate) for 120 min at 30°C in 96 multiwell GF/C filter plates (MilliporeSigma) coated with 0.3% polyethyleneimine (Sigma). The assay was terminated by rapid filtration using a MilliporeSigma vacuum manifold followed by three washes with ice-cold wash buffer (20mM HEPES, pH 7.4). Filters were removed and placed in 7 ml scintillation vials containing 5 ml scintillation fluid (National Diagnostics) and radioactivity counted using a Beckman LS-6500 ß-counter. Nonspecific binding was defined by 100 µM atropine. […]

SK potassium channels = settings: ref Campos Rosa et al., 1996; read-out: IC50, block of SK channels; cited from earlier work
SK3 = target: SK3; set-up: method as in Benton D.C. et al., 2013; settings: 125I-Apamin competition; ref Benton D.C. et al., 2013; read-out: Ki, SK3 channels; cited from earlier work

T2 sequence (P20309 whole entry): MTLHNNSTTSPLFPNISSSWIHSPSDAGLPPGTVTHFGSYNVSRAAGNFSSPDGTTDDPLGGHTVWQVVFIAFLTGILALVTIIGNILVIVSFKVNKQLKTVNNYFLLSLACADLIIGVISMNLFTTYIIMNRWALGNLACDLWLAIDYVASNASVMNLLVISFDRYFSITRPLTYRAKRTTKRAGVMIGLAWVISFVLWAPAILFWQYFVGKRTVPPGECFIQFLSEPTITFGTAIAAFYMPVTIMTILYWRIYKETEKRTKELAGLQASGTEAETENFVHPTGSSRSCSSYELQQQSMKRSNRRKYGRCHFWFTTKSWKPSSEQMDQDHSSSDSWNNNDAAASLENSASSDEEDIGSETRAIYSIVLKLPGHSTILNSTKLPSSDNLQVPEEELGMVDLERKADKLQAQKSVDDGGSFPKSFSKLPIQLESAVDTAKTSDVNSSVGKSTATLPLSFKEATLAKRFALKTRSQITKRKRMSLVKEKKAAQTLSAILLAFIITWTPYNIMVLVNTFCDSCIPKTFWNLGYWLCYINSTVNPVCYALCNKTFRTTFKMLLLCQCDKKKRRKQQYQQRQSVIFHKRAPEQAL
T1 sequence (P47900 whole entry): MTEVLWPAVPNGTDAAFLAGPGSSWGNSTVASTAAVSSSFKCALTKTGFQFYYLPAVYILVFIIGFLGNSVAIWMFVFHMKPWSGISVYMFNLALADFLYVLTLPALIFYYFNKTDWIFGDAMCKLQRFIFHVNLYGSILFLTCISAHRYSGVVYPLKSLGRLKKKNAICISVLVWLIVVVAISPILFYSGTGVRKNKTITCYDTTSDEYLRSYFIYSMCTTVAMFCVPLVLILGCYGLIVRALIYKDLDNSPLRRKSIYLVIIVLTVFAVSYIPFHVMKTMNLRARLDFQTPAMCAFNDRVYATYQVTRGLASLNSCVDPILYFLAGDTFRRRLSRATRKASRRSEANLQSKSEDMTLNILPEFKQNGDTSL

## c1cc2cc(c1)C[n+]1ccc(c3ccccc31)NCc1ccc(cc1)CNc1cc[n+](c3ccccc13)C2 [UCL 1684, 6,12,19,20,25,26-Hexahydro-5,27:13,18:21,24-trietheno-11,7-metheno-7H-dibenzo [b,n] [1,5,12,16]tetraazacyclotricosine-5,13-diium dibromide]
[1]
  inhibition at 5 µM: 6.7 ± 6%
Mouse lung lower airways
  Bronchial diameter during second carbachol challenge normalized to first challenge: 178.3% and 178.3 ± 19.0%
M3 mACHR; n=3 separate experiments, read-out: Average Ki, competition binding
  Ki: 909 nM
M3 mACHR; single experiment shown, read-out: pKi, representative binding experiment (converted)
  Ki: 1120 nM
SK potassium channels
  IC50: 3 nM
SK3
  Ki: 7.7 nM
